Data published in the METLIN SMRT retention time set (Domingo-Almenara et al. 2019).

Experiment: gradient 5% acetonitrile 3 min, to 50% in 2 min, to 85% in 15 min, held 3 min, 100 µL/min
Details: column: Zorbax Extend-C18 2.1 x 50 mm; eluents: water / acetonitrile, 0.1% formic acid
Summary of the method: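 Over 3 months, pure standards in mixtures of ~100 molecules were run by HPLC coupled to a quadrupole time-of-flight mass spectrometer in positive and negative ionization mode. The column was a Zorbax Extend-C18 (2.1 × 50 mm, 1.8 μm) at 100 μL/min, eluted with water and acetonitrile each holding 0.1% formic acid, with 40 μL dead and 900 μL dwell volumes. Retention time was determined from adduct peaks chosen by software and checked manually.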

RP-LC retention time	Structure (SMILES)
1010 s	CCn1ccc(C(=O)Nc2ccc(OCc3nnc(-c4ccc(Cl)cc4)o3)cc2)n1
733 s	CC1CCN(c2ccc(-c3noc(CCC(=O)N4CCN(C5CCCCC5)CC4)n3)cc2)CC1
782 s	O=C(O)c1ccccc1C(=O)Nc1ccccc1[N+](=O)[O-]
838 s	Brc1cccc(-c2nnc3sc(-c4ccncc4)nn23)c1
720 s	Cc1ccc2oc(-c3nnc(C(=O)NCCN4CCCCCC4)o3)c(C)c2c1
730 s	COC(=O)C1=CN(c2ccc(N(C)C)cc2)c2ccc(F)cc2S1(=O)=O
757 s	COc1ccc(CCC(=O)NCCCn2cccc2)cc1
704 s	CSc1ccc(CNC(=O)C2CCCN(c3cc(=O)n(C)c(=O)n3C)C2)cc1 (stereo unspecified)
763 s	O=C(NCc1ccc2c(c1)OCO2)C1CCN(c2cnc(N3CCSCC3)nc2)CC1
648 s	Nc1cc(C2CCN(C(=O)c3ccccc3F)CC2)no1
983 s	COc1ccc(N2CC(c3noc(-c4cccc(N(C)C)c4)n3)CC2=O)cc1 (stereo unspecified)
612 s	COc1ccc(-c2nc3cnccn3c2Nc2cccc(C(N)=O)c2)cc1
677 s	CCOC(=O)C1CCN(C(=O)c2n[nH]c(=O)c3ccccc23)CC1
1180 s	COc1cccc(C2Cn3nnc(-c4nc(-c5ccccc5C)no4)c3CO2)c1 (stereo unspecified)
801 s	COc1ccc(Cl)c2c(=O)c3c([nH]c12)CCN(CC(=O)Nc1cccc(C#N)c1)C3
892 s	CCn1cc(S(=O)(=O)Nc2cc(C)ccc2C)c2cccnc21
733 s	Cc1nc(-c2cc3cccc(C)c3nc2N2CCN(c3ccccc3F)CC2)no1
607 s	CC1CC(=O)c2cn3ncnc3nc2C1 (stereo unspecified)
1060 s	COc1ccc(OC)c(NC(=O)c2cc(S(=O)(=O)N3CCC(C)CC3)cn2C)c1
882 s	Cc1noc(C)c1S(=O)(=O)N1CCOC(c2ccccc2)C1 (stereo unspecified)
605 s	COc1ccc(OC)c(NC(=O)N(C)Cc2nc3cc(C(=O)N(C)C)ccc3n2C)c1
619 s	O=C(Cc1ccsc1)Nc1ccc2c(N3CCOCC3)ncnc2c1
1010 s	Cc1cc2nn(CC(=O)N(C)c3ccccc3)c(=O)n2c(Nc2ccc(F)cc2)n1

RP-LC retention time	Structure (SMILES)
708 s	N#Cc1cccc(-c2cn3c(n2)N(C(=O)c2ccccc2)CCC3)c1
797 s	Cc1cc(NC(=O)c2ccccc2)c(Cl)cc1N
576 s	O=S(=O)(NCCCN1CCOC(c2ccccc2)C1)c1ccccc1Cl (stereo unspecified)
961 s	Cc1ccc(NC(=O)c2cn(-c3cc(N4CCCC4)ncn3)cn2)c(C)c1
1030 s	COc1ccccc1-c1nc(COc2cc(C)c3c(C)nn(C)c3n2)c(C)o1
894 s	CCOCCOC(=O)C1=C(C)NC2=C(C(=O)C(C(=O)OC)C(C)C2)C1c1cccc(F)c1 (stereo unspecified)
672 s	Cc1cc(=O)n(CC(=O)Nc2ccc(F)cc2Cl)c(N2CCOCC2)n1
1110 s	CCCc1noc(C2CCCCN2CC(=O)Nc2ccc(F)c(Cl)c2)n1 (stereo unspecified)
773 s	COc1cccc(NC(=O)N2CCC[C@@H]2C(=O)NCc2csc(-c3cccs3)n2)c1
876 s	Cc1cc(N2CCN(S(=O)(=O)c3ccc(C)c(C)c3)CC2)nc(NC2CCCCC2)n1
856 s	Cc1cccc(Nc2nc(C(=O)NCc3ccc(C)o3)nc3ccccc23)c1
890 s	O=C(c1ccc(Cl)c(Cl)c1)N1CCC2(CC1)OCCS2
575 s	COCCOc1cc(=O)n2c(c1C(=O)NC1CCC1)CCOCC2
706 s	COc1ccc(NC(=O)C2CC(=O)N(c3ccc4oc(C)nc4c3)C2)cc1 (stereo unspecified)
925 s	CC(C)C(=O)N1CCc2c([nH]c3ccccc23)C12C(=O)Nc1ccc(Br)cc12 (stereo unspecified)
738 s	CN(CC1CCOCC1)C(=O)Nc1ccccc1C(F)(F)F
633 s	COc1cc(-c2nc3ncccn3c2Nc2ccccc2)ccc1O
873 s	COc1ccc(Cl)cc1NC(=O)Nc1ccccc1NC(=O)c1ccco1
618 s	CC(C)CNC(=O)NCCn1nnc2cc(C(=O)N3CCCC3)ccc21
596 s	COC(=O)c1ccccc1NC(=O)N1CCc2nc[nH]c2C1
1070 s	Cc1nc(-c2cn(C(C)C)c3ncccc23)sc1C(=O)NCCC(C)C
709 s	O=C(NCc1cc(F)ccc1F)C1CCN(c2cncnc2N2CCCCC2)CC1
938 s	CCOC(=O)c1noc2nc(C)nc(Nc3ccc(OC)cc3)c12

RP-LC retention time	Structure (SMILES)
770 s	Cn1cc(S(=O)(=O)N2CCC(C(=O)N3CCCCCC3)CC2)cc1C(=O)N1CCCCC1
833 s	CCNS(=O)(=O)c1cc(-c2nnc(-c3ccc(OC)c(OC)c3)o2)ccc1C
698 s	CCn1nccc1C(=O)NCC1Cn2cccc2C(=O)N1CC(C)C (stereo unspecified)
645 s	CS(=O)(=O)Nc1nc2ccccc2[nH]1
601 s	COc1cccc(CN2CCC(N3C(=O)C4(CCCCC4)C3c3ccncc3)CC2)c1OC (stereo unspecified)
720 s	O=C(NC1CC1)c1snc(-c2ccccn2)c1NC(=O)C1CC1
864 s	O=C(Cc1ccc(F)cc1)N1CCN(C(=O)c2nnn3c2COC(c2ccccc2)C3)CC1 (stereo unspecified)
1060 s	CCn1nnc2ccc(-c3noc(-c4cccc(OC)c4)n3)cc21
594 s	O=C(c1ccccc1OCC1CCCN(C2CCCCC2)C1)N1CCCCC1 (stereo unspecified)
982 s	COc1ccc2c(CCNC(=O)c3ccc(C(C)(C)C)cc3)c[nH]c2c1
648 s	O=C1NC(=O)/C(=C/c2ccc(C(=O)Nc3ccc(C(=O)O)cc3)cc2)S1
664 s	Cc1nnc2sc(-c3cccs3)nn2c1=O
645 s	CCC(C(=O)NCCCN1CCCC1)n1nc(C)c2nn(-c3ccccc3)c(C)c2c1=O (stereo unspecified)
681 s	CC(=O)Nc1ccc(-n2cnc(C(=O)NCc3ccc(F)cc3)c2)nc1
563 s	CC(C)c1nnc(C2CN(C)CC23CCN(Cc2cc(Cl)ccc2F)CC3)o1 (stereo unspecified)
643 s	O=C(O)c1ccc(N2CCCC(CN3CCCC3)C2)c(NS(=O)(=O)c2ccccc2)c1 (stereo unspecified)
919 s	O=C(CN1C(=O)CC(c2ccccc2)=Nc2ccccc21)NCc1ccccc1
615 s	O=S(=O)(c1cccc2nsnc12)N1CC[C@@H]2COCCN(Cc3cccnc3)[C@@H]2C1
1310 s	O=C(NCCC1=CCCCC1)C1CCCN(c2nc3ccccc3n(Cc3ccccc3)c2=O)C1 (stereo unspecified)
911 s	Cc1nn2c(S(=O)(=O)N3CCCCC3)c(C(C)C)nc2s1
1010 s	CC(=O)Nc1cccc(-c2nc(-c3ccc4c(c3)nnn4C3CCCC3)no2)c1
674 s	CCOC(=O)C1=C(CN2CCCC(C(=O)OCC)C2)NC(=O)NC1c1ccc(C)cc1 (stereo unspecified)
1150 s	O=c1c2cc(-c3cccs3)nn2cnn1Cc1nc(-c2cccc(Br)c2)no1

RP-LC retention time	Structure (SMILES)
1070 s	CCc1ccc(C(=O)Nc2cnn(CC)c(=O)c2N2CCOCC2)cc1
970 s	CC(C)c1nc(N2CCCC2=O)sc1C(=O)NCc1ccc(F)cc1
725 s	COc1cccc(NC(=O)Cn2cnc(-c3noc(C4CC4)n3)c2)c1
1030 s	CCOC(=O)N1CCN(c2ncc(S(=O)(=O)c3ccc(C(C)C)cc3)c(N)n2)CC1
979 s	O=c1cc(-c2cccnc2)oc2c1ccc1ccccc12
891 s	O=C(NC1CCCCC1)c1cc2n(n1)CCCN(Cc1ccccc1)C2=O
675 s	COCC(=O)N1CCCn2cc(-c3cccc(C#N)c3)nc21
835 s	Cn1c(=O)sc2cc(S(=O)(=O)N3CCC(C(=O)Nc4ccccc4)CC3)ccc21
674 s	CCc1ccc(Nc2c(C(=O)N3CCCCC3C)cnc3nc(C)ccc23)cc1 (stereo unspecified)
613 s	CCOC(=O)CNC(=O)Nc1ncc(-c2ccccc2)n1C
681 s	COc1ccc(OCc2noc(CNC(=O)Cc3c[nH]c4ccccc34)n2)cc1
627 s	COc1cc(NC(=O)N2CCCC(Cn3cnc4cccnc43)C2)cc(OC)c1OC (stereo unspecified)
699 s	CCN1CCN(c2cc(C)c3cc(NC(=S)N4CCC(Cc5ccccc5)CC4)ccc3n2)CC1
906 s	O=C(Cn1c(=O)cc(-c2nc(C3CC3)no2)c2ccccc21)NCc1ccc2c(c1)OCO2
809 s	O=C(Cn1c(-c2cccs2)cc2cc(Cl)ccc21)N1CCN(c2ccccn2)CC1
876 s	CC(C)C(=O)NCc1csc(C2CCN(C(=O)C3CCC3)CC2)n1
756 s	COc1ccc2[nH]cc(CCNC(=O)Cn3nc4c(cc3=O)CCCCC4)c2c1
835 s	Cc1ccc(NC(=O)N2CCC(n3cnc4c(C)cccc4c3=O)CC2)c(C)c1
684 s	Cc1ccc(-c2nc3cnccn3c2NCCC(=O)NCc2ccco2)cc1
1050 s	CCOc1ccc(-c2noc(Cn3c(=O)n(CCCOC)c(=O)c4ccccc43)n2)cc1
1000 s	CCOc1ccc2nc(NC(=O)C3CCCN(c4ncnc5c4nc4n5CCCCC4)C3)sc2c1 (stereo unspecified)
595 s	Cc1ccc(C(=O)N2CC(n3cc(COCC4CC4)nn3)C2)c(=O)[nH]1
